Measured values taken from publication PMC11956012, “Optimization of Cyclophilin B-Targeted Tri-vector Inhibitors for Novel MASH Treatments” (Journal of Medicinal Chemistry, 2025).
Values after ≈ are worked out from the molar mass of the structure shown. Where two headings read alike, the source gives them in different places.

Columns and labels:
[1] = tested on: permeabilised human hepatocyte (HepG2) cells; experiment: Calcium Retention Capacity assay; type: cell-based
Procedure: Calcium Retention Capacity Assay
The compounds were prepared as a 10 mM stock solution in 100% DMSO. Subsequent dilutions were made in 100% DMSO and then in assay buffer to 10-fold the final concentration.
HepG2 cells were permeabilized with 100 µM digitonin for 10 min in ice cold buffer containing 1mM EGTA. Following two wash steps to remove the digitonin, the cells were plated into 96 well black and clear plates at 106 cell per well in a 180 µL assay buffer containing 0.5 µM Calcium Green 5N. Compounds dilution were prepared in DMSO to 1000 fold the final concentration, diluted 1:100 in assay buffer and added to the assay as 20 µL per well. The assay buffer contained 5 mM glutamate and 2.5 mM malate. The cell plate was immediately run on the FLIPR Tetratm which added 5 µL of 200 µM (5 µM) calcium chloride every 5 minutes whilst reading the plate every 3 seconds. The area under the curve (AUC) of the raw trace was calculated at each concentration. AUC values were plotted against concentration and EC50 values calculated. Experiments were repeated three times and the EC50 value was determined from a curve fitted to the averaged replicates.

[2] = Intrinsic clearance, rat liver microsomes; type: in vitro ADME; conditions: for microsomal CLint: Table 3, read-out: Rat Liver microsomes CL
[3] = Intrinsic clearance, human liver microsomes; type: in vitro ADME; conditions: for microsomal CLint: Table 3, read-out: Human Liver microsomes CL
[4] = Intrinsic clearance, rat hepatocytes; type: in vitro ADME; conditions: for hepatocyte CLint: Table 3, read-out: Rat Hepatocytes CL
[5] = Intrinsic clearance, human hepatocytes; type: in vitro ADME; conditions: for hepatocyte CLint: Table 3, read-out: Human Hepatocytes CL
Cyp B [6] = biological target: T1, Cyp B (Homo sapiens, UniProt P23284); conditions: from SPR Kd
Procedure: (§2) The cyclophilin binding properties of the compounds were assessed by Surface Plasmon Resonance (SPR) against Cyp A, B and D isoforms (Table 1, representative sensorgrams are shown in Figure 3A).[35]
Surface Plasmon Resonance (SPR)
(§3) SPR measurements were performed on a Biacore T200 instrument (Cytiva). Ni2+ -
(§4) nitrilotriacetic acid (NTA) sensor chips, 1-ethyl-3-(3-diaminopropyl) carbodiimide
(§5) hydrochloride (EDC) and N hydroxy succinimide (NHS) were purchased from Cytiva.
(§6) Immobilization and covalent stabilization of His-Cyps Pure His-cyclophilins on the NTA
(§7) sensor chip was performed essentially as described. [Wear et al., 2017, FEBS OpenBio], using
(§8) 200 nM concentrations of each protein, in Running Buffer (PBS, pH7.4; 0.05 % surfactant P20,
(§9) 2% v/v ethanol; 50 µM EDTA), at 30 µl min-1 with 60 second contact times on the activated
(§10) NTA surfaces. This gave signals of 1,921 RU for His-CypA, 1932 RU for His-CypB and 1,397
(§11) RU for His-CypD. Specific surface protein activity was assayed by passing saturating amounts
(§12) activity were obtained for His-CypA, -B and –D, respectively.
Kinetic titration experiments
(§13) Single cycle kinetic titration binding experiments were performed in triplicate at 25 °C. 3-fold
(§14) injected over the sensor surface, at 100 µl min-1 with a 90 s contact time and a 90 s dissociation
(§15) time. The sensor surface was regenerated between experiments by dissociating any formed
(§16) complex in running buffer for at least 1,200 seconds. The apparent on-rate (k+) and off-rate (k-
(§17) ) constants and the equilibrium dissociation constant (Kd) were calculated from reference

physchem [7] = experiment: physchem
Procedure: (§18) Kinetic solubility measurements were carried out using a shake-flask technique. Compounds
(§19) were incubated for 24 hours at room temperature. Aqueous solubility (μM) was determined by
(§20) comparing the peak area of the principal peak in a calibration standard (200 μM) containing
(§21) organic solvent (methanol/water, 60/40, v/v) with the peak area of the corresponding peak in a
(§22) buffer sample. In addition, chromatographic purity (%) was defined as the peak area of the
(§23) principal peak relative to the total integrated peak area in the HPLC chromatogram of the
(§24) calibration standard. A chromatogram of the calibration standard of each test compound, along
(§25) with a UV/VIS spectrum with labeled absorbance maxima, was generated.
(§26) These were measured using a shake-flask technique. Compounds were incubated for 60 min at
(§27) room temperature. The total amount of compound was determined as the peak area of the
(§28) principal peak in a calibration standard (100 μM) containing organic solvent (methanol/water,
(§29) 60/40, v/v). The amount of compound in buffer was determined as the combined, volume
(§30) corrected, and weighted areas of the corresponding peaks in the aqueous phases of three
(§31) organic-aqueous samples of different composition. An automated weighting system was used
(§32) to ensure the preferred use of raw data from those samples with well quantifiable peak signals.
(§33) The amount of compound in organic was calculated by subtraction. Subsequently, Log D was
(§34) calculated as the Log10 of the amount of compound in the organic phase divided by the amount
of compound in the aqueous phase.

physchem [8] = experiment: physchem; remark: listed apart in the source
Procedure: as §18, §19, §20, §21, §22, §23, §24, §25, §26, §27, §28, §29, §30, §31, §32, §33, §34
of compound in the aqueous phase.

in vitro = conditions: human, Caco-2
Cyp B [9] = biological target: T1, Cyp B; experiment: biochemical
Procedure: as §2
Surface Plasmon Resonance (SPR)
as §3, §4, §5, §6, §7, §8, §9, §10, §11, §12
Kinetic titration experiments
as §13, §14, §15, §16, §17

Cyp A [10] = biological target: T2, Cyp A (Homo sapiens, UniProt P62937); experiment: SPR kinetic titration, Cyp A
Procedure: as §2
Surface Plasmon Resonance (SPR)
as §3, §4, §5, §6, §7, §8, §9, §10, §11, §12
Kinetic titration experiments
as §13, §14, §15, §16, §17

Cyp D [11] = biological target: T3, Cyp D (Homo sapiens, UniProt P30405); experiment: SPR kinetic titration, Cyp D
Procedure: as §2
Surface Plasmon Resonance (SPR)
as §3, §4, §5, §6, §7, §8, §9, §10, §11, §12
Kinetic titration experiments
as §13, §14, §15, §16, §17

iPSC-derived hepatocytes = experiment: In vitro hepatic steatosis (MASH) assay; type: cell-based; conditions: 48 h treatment
[12] = Rat plasma protein binding; type: in vitro ADME
Excerpt: (§1) These experiments were subcontracted to Eurofins. […]

[13] = Human plasma protein binding; type: in vitro ADME
Excerpt: as §1

CYP1A = experiment: Cytochrome P450 inhibition CYP1A; type: in vitro ADME; conditions: human, probe phenacetin; single point at 10 μM; substrate phenacetin
CYP2B6 = biological target: T4, CYP2B6 (Homo sapiens, UniProt P20813); experiment: Cytochrome P450 inhibition CYP2B6; type: in vitro ADME; conditions: single point at 10 μM; substrate bupropion
T4 construct: Eurofins (subcontracted)
T4 sequence (P20813 1-491): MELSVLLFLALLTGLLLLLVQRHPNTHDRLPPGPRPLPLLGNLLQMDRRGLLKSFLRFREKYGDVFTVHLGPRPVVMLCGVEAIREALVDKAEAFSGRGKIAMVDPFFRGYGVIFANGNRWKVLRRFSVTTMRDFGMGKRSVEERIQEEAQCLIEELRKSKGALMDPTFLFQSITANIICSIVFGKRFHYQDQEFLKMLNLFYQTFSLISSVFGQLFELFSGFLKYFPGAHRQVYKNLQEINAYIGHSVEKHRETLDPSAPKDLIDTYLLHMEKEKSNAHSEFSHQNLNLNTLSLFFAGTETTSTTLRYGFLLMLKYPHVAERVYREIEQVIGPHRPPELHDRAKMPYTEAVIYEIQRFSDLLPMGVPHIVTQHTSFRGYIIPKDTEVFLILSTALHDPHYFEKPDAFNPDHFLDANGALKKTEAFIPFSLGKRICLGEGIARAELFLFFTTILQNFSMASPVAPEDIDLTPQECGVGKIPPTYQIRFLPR

CYP2C8 = biological target: T5, CYP2C8 (Homo sapiens, UniProt P10632); experiment: Cytochrome P450 inhibition CYP2C8; type: in vitro ADME; conditions: single point at 10 μM; substrate amodiaquine
T5 construct: Eurofins (subcontracted)
T5 sequence (P10632 1-490): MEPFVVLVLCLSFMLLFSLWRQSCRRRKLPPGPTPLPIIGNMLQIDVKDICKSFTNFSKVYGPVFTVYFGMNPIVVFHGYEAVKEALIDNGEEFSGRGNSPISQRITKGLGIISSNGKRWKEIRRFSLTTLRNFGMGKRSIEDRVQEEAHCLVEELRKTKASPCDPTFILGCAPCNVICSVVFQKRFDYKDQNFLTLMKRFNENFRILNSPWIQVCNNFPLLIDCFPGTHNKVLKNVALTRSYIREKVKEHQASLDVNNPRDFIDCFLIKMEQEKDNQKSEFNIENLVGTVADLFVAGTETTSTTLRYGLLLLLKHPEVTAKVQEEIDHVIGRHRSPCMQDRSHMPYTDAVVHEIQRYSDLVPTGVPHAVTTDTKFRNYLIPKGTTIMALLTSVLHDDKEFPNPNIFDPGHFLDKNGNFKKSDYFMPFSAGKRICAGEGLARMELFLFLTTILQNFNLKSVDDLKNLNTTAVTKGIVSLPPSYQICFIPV

CYP2C9 = biological target: T6, CYP2C9 (Homo sapiens, UniProt P11712); experiment: Cytochrome P450 inhibition CYP2C9; type: in vitro ADME; conditions: single point at 10 μM; substrate diclofenac
T6 construct: Eurofins (subcontracted)

CYP2C19 = biological target: T7, CYP2C19 (Homo sapiens, UniProt P33261); experiment: Cytochrome P450 inhibition CYP2C19; type: in vitro ADME; conditions: single point at 10 μM; substrate omeprazole
T7 construct: Eurofins (subcontracted)

CYP2D6 = biological target: T8, CYP2D6 (Homo sapiens, UniProt P10635); experiment: Cytochrome P450 inhibition CYP2D6; type: in vitro ADME; conditions: single point at 10 μM; substrate dextrometorphan
T8 construct: Eurofins (subcontracted)

CYP3A = experiment: Cytochrome P450 inhibition CYP3A; type: in vitro ADME; conditions: human, single point at 10 μM
Cyp A [14] = biological target: T2, Cyp A
Procedure: as §2
Surface Plasmon Resonance (SPR)
as §3, §4, §5, §6, §7, §8, §9, §10, §11, §12
Kinetic titration experiments
as §13, §14, §15, §16, §17

Cyp D [15] = biological target: T3, Cyp D
Procedure: as §2
Surface Plasmon Resonance (SPR)
as §3, §4, §5, §6, §7, §8, §9, §10, §11, §12
Kinetic titration experiments
as §13, §14, §15, §16, §17

Caco-2 permeability = conditions: human, Caco-2
Caco-2 = Caco-2 permeability; conditions: apparent permeability A-B
[16] = tested on: Salmonella typhimurium TA98; experiment: Ames fluctuation test TA98
Procedure: (§35) Bacterial cytotoxicity tests were carried out using Reverted Salmonella typhimurium strains
(§36) (TA98, TA100, TA1535, TA1537) that were incubated 96 hours at 37 Celsius. The results for
(§37) cytotoxicity are expressed as percent of control growth (OD650). Compounds with growth of
(§38) less than 60 % of control are flagged and considered cytotoxic.
(§39) Compounds were incubated for 96 hours at 37°C at 4 different concentrations (5 mM, 10 mM,
(§40) the absence and presence of rat liver S9 microsomes.
(§41) to the reversion of the histidine mutation (as judged by the ratio of OD430/OD570 being greater
(§42) than 1.0) are counted and recorded as positive counts. The significance of the positive counts
(§43) between the treatment (in the presence of test compound) and the control (in the absence of test
(§44) compound) are calculated using the one-tailed Fisher's exact test. Three significance levels are
(§45) Very strong positive, if p < 0.001, denoted as "+++"
(§46) Control experiments were carried out with 2-aminoanthracene (10 mM), 9-aminoacridine (10
(§47) mM), quercetin (30 mM) and streptozocitin (2.5 mM).

[17] = tested on: Salmonella typhimurium TA100; experiment: Ames fluctuation test TA100
Procedure: as §35, §36, §37, §38, §39, §40, §41, §42, §43, §44, §45, §46, §47

[18] = tested on: Salmonella typhimurium TA1535; experiment: Ames fluctuation test TA1535
Procedure: as §35, §36, §37, §38, §39, §40, §41, §42, §43, §44, §45, §46, §47

[19] = tested on: Salmonella typhimurium TA1537; experiment: Ames fluctuation test TA1537
Procedure: as §35, §36, §37, §38, §39, §40, §41, §42, §43, §44, §45, §46, §47

[20] = Aqueous kinetic solubility, shake-flask
Procedure: as §18, §19, §20, §21, §22, §23, §24, §25, §26, §27, §28, §29, §30, §31, §32, §33, §34
of compound in the aqueous phase.

[21] = Partition coefficient (Log D), shake-flask; conditions: octanol/water
Procedure: as §18, §19, §20, §21, §22, §23, §24, §25, §26, §27, §28, §29, §30, §31, §32, §33, §34
of compound in the aqueous phase.

[22] = tested on: Salmonella typhimurium strains (TA98, TA100, TA1535, TA1537); experiment: Ames tests, all strains (summary in words); conditions: in absence and presence of liver S9 fractions
Procedure: as §35, §36, §37, §38, §39, §40, §41, §42, §43, §44, §45, §46, §47

Cyp A [23] = biological target: T2, Cyp A; experiment: Isothermal titration calorimetry (ITC), Cyp A; type: binding; design: full-length human CypA (M1 – E165); made in house; host or cells: Escherichia coli OverExpress C41 BL21(DE3); conditions: 25 °C
Procedure: All ITC experiments were carried out at 25°C on a MicroCal Auto iTC200 (GE Healthcare)
solutions were heated to 65°C and/or sonicated prior to the experiment. Each experiment
consisted of an initial injection of 0.4 μL followed by repeated 2 μL injections to achieve
saturation. In all cases the first injection
was omitted from the data processing. All data were analysed using the MicroCal PEAQ-ITC
Analysis software. A fixed stoichiometry to 1 was applied during the non-linear regression of
the raw data for fitting the data.

[24] = design: method as in PMID 38324483; conditions: phase III trial; cited from earlier work
[25] = Kd Cyp B, SPR-derived dissociation constant, 25 °C
[26] = Hepatocyte, 48 h, 95% CI [lower limit, upper limit], read-out: EC50 steatosis

T2 sequence (P62937 whole entry): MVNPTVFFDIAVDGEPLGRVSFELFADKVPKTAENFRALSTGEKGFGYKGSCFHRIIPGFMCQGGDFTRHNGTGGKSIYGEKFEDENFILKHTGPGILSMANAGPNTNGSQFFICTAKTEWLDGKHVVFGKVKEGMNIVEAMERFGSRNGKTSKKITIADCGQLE
T1 sequence (P23284 32-216 limits assumed): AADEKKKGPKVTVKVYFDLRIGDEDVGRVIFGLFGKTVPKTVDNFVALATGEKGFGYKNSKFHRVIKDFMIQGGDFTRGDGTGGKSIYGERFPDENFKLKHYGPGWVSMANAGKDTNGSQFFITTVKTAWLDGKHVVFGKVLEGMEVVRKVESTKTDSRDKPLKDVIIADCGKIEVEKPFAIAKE
T3 sequence (P30405 42-207): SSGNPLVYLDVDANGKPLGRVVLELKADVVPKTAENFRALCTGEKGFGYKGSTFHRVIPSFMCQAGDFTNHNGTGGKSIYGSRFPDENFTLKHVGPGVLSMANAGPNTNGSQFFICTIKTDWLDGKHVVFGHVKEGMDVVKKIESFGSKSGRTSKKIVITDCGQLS
T7 sequence (P33261 whole entry): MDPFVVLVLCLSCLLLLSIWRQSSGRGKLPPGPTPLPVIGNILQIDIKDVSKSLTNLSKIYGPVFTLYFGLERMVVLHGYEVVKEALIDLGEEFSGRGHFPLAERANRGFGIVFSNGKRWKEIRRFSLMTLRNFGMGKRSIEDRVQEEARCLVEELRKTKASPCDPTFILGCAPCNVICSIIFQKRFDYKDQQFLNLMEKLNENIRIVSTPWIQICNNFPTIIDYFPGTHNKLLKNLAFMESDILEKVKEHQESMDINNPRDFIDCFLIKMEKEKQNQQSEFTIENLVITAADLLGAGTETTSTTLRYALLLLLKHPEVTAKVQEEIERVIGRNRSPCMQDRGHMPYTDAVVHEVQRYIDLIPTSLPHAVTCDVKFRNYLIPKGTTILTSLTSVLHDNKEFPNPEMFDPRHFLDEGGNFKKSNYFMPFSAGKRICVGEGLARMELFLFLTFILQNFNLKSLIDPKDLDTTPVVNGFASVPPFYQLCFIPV
T6 sequence (P11712 whole entry): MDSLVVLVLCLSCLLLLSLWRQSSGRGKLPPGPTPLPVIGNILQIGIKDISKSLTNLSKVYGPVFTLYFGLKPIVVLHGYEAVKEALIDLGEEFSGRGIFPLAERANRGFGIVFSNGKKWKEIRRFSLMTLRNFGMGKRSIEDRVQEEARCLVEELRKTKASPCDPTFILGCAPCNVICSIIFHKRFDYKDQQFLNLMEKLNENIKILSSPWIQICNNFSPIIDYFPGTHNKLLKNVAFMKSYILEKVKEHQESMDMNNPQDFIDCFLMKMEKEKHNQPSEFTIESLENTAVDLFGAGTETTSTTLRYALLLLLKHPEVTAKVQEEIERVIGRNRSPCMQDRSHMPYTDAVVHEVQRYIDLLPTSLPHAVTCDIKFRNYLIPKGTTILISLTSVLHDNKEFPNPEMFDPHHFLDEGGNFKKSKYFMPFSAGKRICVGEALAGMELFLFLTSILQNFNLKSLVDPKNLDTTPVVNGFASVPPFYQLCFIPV
T8 sequence (P10635 whole entry): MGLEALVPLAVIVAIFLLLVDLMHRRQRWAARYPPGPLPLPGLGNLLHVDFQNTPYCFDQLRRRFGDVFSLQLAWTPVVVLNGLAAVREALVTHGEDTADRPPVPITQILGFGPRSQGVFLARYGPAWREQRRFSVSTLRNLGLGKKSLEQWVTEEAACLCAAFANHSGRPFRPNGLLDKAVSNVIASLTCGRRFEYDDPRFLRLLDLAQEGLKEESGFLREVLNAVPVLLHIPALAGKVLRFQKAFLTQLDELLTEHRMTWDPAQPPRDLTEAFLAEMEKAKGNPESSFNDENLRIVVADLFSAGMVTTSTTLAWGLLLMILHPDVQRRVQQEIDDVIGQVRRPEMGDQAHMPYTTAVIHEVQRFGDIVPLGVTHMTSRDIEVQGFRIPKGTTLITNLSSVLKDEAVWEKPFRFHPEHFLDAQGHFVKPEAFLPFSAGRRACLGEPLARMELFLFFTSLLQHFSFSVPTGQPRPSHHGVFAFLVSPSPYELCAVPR

CSc1ccccc1[C@H]1CCCN1C(=O)CNC(=O)N(Cc1ccc2c(c1)[C@H]1C[C@@H](N2)[C@H](O)CO1)Cc1nnn(C)n1 [Compound 3, 1-[[(1S,9R,10S)-10-Hydroxy-12-oxa-8-azatricyclo[7.3.1.0,^27]trideca-2,4,6-trien-4-yl]methyl]-3-[2-[(2R)-2-(2-methylsulfanylphenyl)pyrrolidin-1-yl]-2-oxo-ethyl]-1-[(2-methyltetrazol-5-yl)methyl]urea]
EC50 ([1]; Homo sapiens, HepG2, read-out: EC50 CRC assay): 0.244 µM
greater efficacy over CsA in the calcium retention assay ([1]; from EC50 values): 2 fold
half-life [2]: 51 min
microsomal CLint [2]: 137 µL/min/mg
half-life [3]: 41 min
microsomal CLint [3]: 169 µL/min/mg
half-life ([4]; cryopreserved hepatocytes): > 120 min
hepatocyte CLint ([4]; cryopreserved hepatocytes): < 8 µL/min/1e6 cells
half-life ([5]; cryopreserved hepatocytes): > 120 min
hepatocyte CLint ([5]; cryopreserved hepatocytes): < 8 µL/min/1e6 cells
selectivity for Cyp B over Cyp A (Cyp B [6]): 3 fold
logD (physchem [7]): 0.66
solubility (physchem [8]): 54 µM (≈ 32 µg/mL)
solubility (physchem [8]; pH 7.4): > 200 µM
Papp A→B (in vitro): 0.3 nm/s
efflux ratio (in vitro): 37
Kd (Cyp B [9]; [25]): 0.002 ± 0.001 µM
Kd (Cyp A [10]): 0.006 ± 0.002 µM
Kd (Cyp D [11]): 0.008 ± 0.003 µM

CSc1ccccc1[C@H]1CCCN1C(=O)CNC(=O)N(Cc1ccc(N)c(Cl)c1)Cc1nnn(C)n1 [Compound 11, 1-[(4-Amino-3-chloro-phenyl)methyl]-1-[(2-methyltetrazol-5-yl)methyl]-3-[2-oxo-2-[(2R)-2-(2-methylsulfanylphenyl)pyrrolidin-1-yl]ethyl]urea]
effect on hepatocyte overall lipid levels and lipid droplet size (in words) (iPSC-derived hepatocytes): significant reduction
EC50 (iPSC-derived hepatocytes; [26]): ~0.3 µM
EC50 (iPSC-derived hepatocytes; Hepatocyte, 48 h, read-out: EC50 MASH assay): 0.258 µM
microsomal CLint [2]: 352 µL/min/mg
half-life ([2]; read-out: Rat Liver microsomes t1/2): 20 min
microsomal CLint [3]: 558 µL/min/mg
half-life ([3]; read-out: Human Liver microsomes t1/2): 12 min
hepatocyte CLint ([4]; hepatocytes): 13 µL/min/1e6 cells
half-life ([4]; hepatocytes, read-out: Rat Hepatocytes t1/2): 78 min
hepatocyte CLint ([5]; hepatocytes): 13 µL/min/1e6 cells
half-life ([5]; hepatocytes, read-out: Human Hepatocytes t1/2): 74 min
recovery at 10 μM [12]: 99%
fraction unbound at 10 µM ([12]; read-out: Rat PPB free): 0.11
recovery [13]: 88%
fraction unbound at 10 µM ([13]; read-out: Human PPB free): 0.02
inhibition at 10 µM (CYP1A): 25%
CYP2B6 bupropion % inhibition (CYP2B6): 11%
CYP2C8 amodiaquine % inhibition (CYP2C8): 71%
CYP2C9 diclofenac % inhibition (CYP2C9): 45%
CYP2C19 omeprazole % inhibition (CYP2C19): 72%
CYP2D6 dextrometor. % inhibition (CYP2D6): 18%
inhibition at 10 µM (CYP3A; probe midazolam, substrate midazolam, read-out: CYP3A midazolam % inhibition): 73%
inhibition at 10 µM (CYP3A; probe testoterone, substrate testoterone, read-out: CYP3A testoterone % inhibition): 59%
Kd (Cyp A [14]): 0.11 ± 0.05 µM
greater affinity for Cyp B compared to 12 (Cyp B [6]): ca. 7 fold
selectivity for Cyp B over Cyp A (Cyp B [6]): 10 fold
selectivity for Cyp B over Cyp A and Cyp D (Cyp B [6]): 10–20 fold
Kd (Cyp D [15]): 0.18 ± 0.1 µM
Kd (Cyp B [9]; [25]): 0.012 ± 0.003 µM
efflux ratio (Caco-2 permeability): 2.8
Caco-2 A-B (Caco-2): 5 10^–6 cm/s
Ames fluctuation test TA98 +S9 ([16]; with rat liver S9): neg/neg
Ames fluctuation test TA98 –S9 ([16]; without S9): neg/neg
Ames fluctuation test TA100 +S9 ([17]; with rat liver S9): neg/neg
Ames fluctuation test TA100 –S9 ([17]; without S9): neg/neg
Ames fluctuation test TA1535 +S9 ([18]; with rat liver S9): neg/neg
Ames fluctuation test TA1535 –S9 ([18]; without S9): neg/neg
Ames fluctuation test TA1537 +S9 ([19]; with rat liver S9): neg/neg
Ames fluctuation test TA1537 –S9 ([19]; without S9): neg/neg
solubility at 24 h ([20]; PBS, pH 7.4): > 200 µM
solubility at 24 h ([20]; simulated gastric fluid): > 200 µM
solubility at 24 h ([20]; simulated intestinal fluid): > 200 µM
logD at 1 h, 100 µM [21]: 1.53
Ames result in all strains tested [22]: negative
DG (ITC) (Cyp A [23]; ITC titration to Cyp A): -40.6 ± 0.42 kJ/mol
DH (ITC) (Cyp A [23]; ITC titration to Cyp A): -68.6 ± 0.42 kJ/mol
TDS (ITC) (Cyp A [23]; ITC titration to Cyp A): -28 kJ/mol
Kd (Cyp A [23]; ITC, pH 6.5, 2% DMSO, read-out: Kd Cyp A from ITC): 0.082 ± 0.006 µM

CSc1ccccc1[C@H]1CCCN1C(=O)CN1C(=O)CN(Cc2cc(F)c(N)c(F)c2)C1=O [Compound 15, 1-[(4-Amino-3,5-difluoro-phenyl)methyl]-3-[2-oxo-2-[(2R)-2-(2-methylsulfanylphenyl)pyrrolidine-1-yl]ethyl]imidazolidine-2,4-dione]
Kd (Cyp D [15]): 6.3 ± 1.6 µM
Kd (Cyp B [9]): 3.8 ± 1.3 µM
Kd (Cyp A [10]): 6.7 ± 2.6 µM

CC(C)c1cc(Oc2c(Cl)cc(-n3nc(C#N)c(=O)[nH]c3=O)cc2Cl)n[nH]c1=O [Resmetirom, reference compound]
EC50 (iPSC-derived hepatocytes; 95% CI [lower limit, upper limit], listed as Res, read-out: EC50 steatosis): 0.261 µM
EC50 (iPSC-derived hepatocytes; [26]): ~0.3 µM
patients with improved liver pathology [24]: 25–30%
